Each structure is given as a SMILES string.

Assay [1] deals with T1, BuChE; butyrylcholinesterase (EC 3.1.1.8) from equine serum (Equus caballus, UniProt P81908).
T1 construct: gene BCHE; commercial enzyme from equine serum, Sigma-Aldrich, EC 3.1.1.8
As to the kind of experiment: Ellman assay, absorbance at […] nm. Type of assay: biochemical. Conditions: read-out: BuChE / IC50 (μM) ± SD *. (In general: In Ellman's method for cholinesterases, released thiocholine reacts with DTNB.)

Assay [2] concerns the target T2, AChE; acetylcholinesterase (E.C. 3.1.1.7) from Electrophorus electricus (Electrophorus electricus, UniProt O42275).
T2 construct: commercial enzyme from Sigma-Aldrich, EC 3.1.1.7, purified from electric eel
Kind of assay: Ellman assay, absorbance at […] nm. Type of assay: biochemical. Conditions: read-out: AChE / IC50 (μM) ± SD *.

T2 sequence (O42275 24-633): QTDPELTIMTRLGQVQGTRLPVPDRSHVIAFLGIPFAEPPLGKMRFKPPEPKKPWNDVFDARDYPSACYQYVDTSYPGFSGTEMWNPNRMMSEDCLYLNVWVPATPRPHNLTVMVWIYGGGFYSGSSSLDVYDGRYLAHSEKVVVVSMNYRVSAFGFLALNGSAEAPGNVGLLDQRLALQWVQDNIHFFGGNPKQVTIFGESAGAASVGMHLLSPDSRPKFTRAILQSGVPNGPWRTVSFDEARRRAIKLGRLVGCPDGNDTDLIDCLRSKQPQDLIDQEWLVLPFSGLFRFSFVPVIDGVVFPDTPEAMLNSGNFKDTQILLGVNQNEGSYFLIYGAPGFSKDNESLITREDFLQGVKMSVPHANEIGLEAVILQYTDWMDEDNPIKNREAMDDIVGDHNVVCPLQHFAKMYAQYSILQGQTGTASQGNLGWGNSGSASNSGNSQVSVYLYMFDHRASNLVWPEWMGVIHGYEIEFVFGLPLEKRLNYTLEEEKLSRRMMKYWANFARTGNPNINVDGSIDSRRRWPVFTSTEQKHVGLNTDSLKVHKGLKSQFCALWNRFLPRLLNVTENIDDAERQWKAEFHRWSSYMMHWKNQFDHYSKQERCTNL
T1 sequence (P81908 whole entry): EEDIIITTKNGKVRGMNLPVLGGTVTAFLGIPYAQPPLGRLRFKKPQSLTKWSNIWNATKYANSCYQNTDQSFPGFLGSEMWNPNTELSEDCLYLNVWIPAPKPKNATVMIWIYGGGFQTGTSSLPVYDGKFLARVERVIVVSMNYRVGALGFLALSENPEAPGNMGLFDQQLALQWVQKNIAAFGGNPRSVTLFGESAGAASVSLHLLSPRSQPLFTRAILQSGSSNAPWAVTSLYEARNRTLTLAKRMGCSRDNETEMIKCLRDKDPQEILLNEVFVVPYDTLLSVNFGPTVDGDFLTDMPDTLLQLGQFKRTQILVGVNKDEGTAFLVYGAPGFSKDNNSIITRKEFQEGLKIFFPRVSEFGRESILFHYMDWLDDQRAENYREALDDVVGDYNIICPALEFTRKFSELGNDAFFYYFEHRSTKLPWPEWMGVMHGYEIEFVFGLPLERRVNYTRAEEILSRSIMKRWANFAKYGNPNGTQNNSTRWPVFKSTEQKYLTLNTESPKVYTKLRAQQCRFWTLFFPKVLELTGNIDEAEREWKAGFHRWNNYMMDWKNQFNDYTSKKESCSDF

Regarding `CCN(CC)c1ccc2cc(-c3nnc(N)s3)c(=O)oc2c1` [compound 1, coumarin–thiadiazole hybrid 1], the IC50 in assay [1] was 0.191 ± 0.024 µM; in assay [2], 0.184 ± 0.011 µM.
For `COc1cccc2cc(-c3nnc(N)s3)c(=O)oc12` [compound 2, coumarin–thiadiazole hybrid 2], the IC50 in assay [1] amounted to 0.198 ± 0.039 µM; in assay [2], 0.213 ± 0.009 µM.
For `CCOc1cccc2cc(-c3nnc(N)s3)c(=O)oc12` [compound 3, coumarin–thiadiazole hybrid 3] the same measures were 0.295 ± 0.024 µM and 0.152 ± 0.003 µM.
Take `Nc1nnc(-c2cc3cc(Cl)ccc3oc2=O)s1` [compound 4, coumarin–thiadiazole hybrid 4]: the results for the IC50 in assay [1] and in assay [2] were 0.205 ± 0.014 µM and 0.211 ± 0.01 µM, respectively.
For `Nc1nnc(-c2cc3cc(Br)ccc3oc2=O)s1` [compound 5, coumarin–thiadiazole hybrid 5] the same measures were 0.261 ± 0.015 µM and 0.183 ± 0.018 µM.
For `Nc1nnc(-c2cc3cc([N+](=O)[O-])ccc3oc2=O)s1` [compound 6, coumarin–thiadiazole hybrid 6] the same measures were 0.166 ± 0.022 µM and 0.198 ± 0.016 µM.
As for `COc1cc([N+](=O)[O-])cc2cc(-c3nnc(N)s3)c(=O)oc12` [compound 7, coumarin–thiadiazole hybrid 7], the IC50 in assay [1] was determined as 0.494 ± 0.024 µM; in assay [2] it was 0.159 ± 0.015 µM.
In the case of `Nc1nnc(-c2cc3ccccc3oc2=O)s1` [compound 8, coumarin–thiadiazole hybrid 8], the IC50 in assay [1] stood at 0.392 ± 0.024 µM; in assay [2], 0.199 ± 0.003 µM.
`Nc1nnc(-c2cc3cc(O)ccc3oc2=O)s1` [compound 9, coumarin–thiadiazole hybrid 9]: the IC50 in assay [1] was determined as 0.235 ± 0.034 µM; in assay [2], 0.196 ± 0.022 µM.
On to `Nc1nnc(-c2cc3ccc(O)cc3oc2=O)s1` [compound 10, coumarin–thiadiazole hybrid 10], for which the values for the IC50 in assay [1] and in assay [2] were 0.38 ± 0.01 µM and 0.2 ± 0.012 µM, respectively.
On to `Nc1nnc(-c2cc3cccc(O)c3oc2=O)s1` [compound 11, coumarin–thiadiazole hybrid 11], for which the IC50 stood at 0.202 ± 0.03 µM in assay [1] and 0.165 ± 0.003 µM in assay [2].
On to `Nc1nnc(-c2cc3ccc(O)c(O)c3oc2=O)s1` [compound 12, coumarin–thiadiazole hybrid 12], for which the IC50 in assay [1] came to 0.264 ± 0.017 µM; in assay [2], 0.187 ± 0.015 µM.
